# From US12648926B2, “Dietary supplement comprising aldehyde functional monoterpenoids” (priority 2020, dated 2026)
# “And” between values parts separate entries of the source, which are not always exact repeats. Equal values may be shown once. Read-outs that look alike come from different tables or passages of the source.
# Columns and labels:
# [1] = test system: EpiAirway™ (AIR-100) tissues
# [2] = test system: EpiAirway™ (AIR-100) tissues; conditions: H&E staining after 24-hour recovery
# [3] = test system: EpiAirway™ (AIR-100) tissues; conditions: for TEER Significant?: alpha 0.05
# [4] = post 24 hr recovery: Untreated Control vs treatment
# [5] = pre exposure vs post 24 hr recovery, same treatment
substance,measurement,setting,value
Triton X-100 [0.5% Triton],Effect on tissue viability,"[1]; LDH assay, 24-hour time point",complete loss of viability
same,"LDH viability Mean Diff., Tukey's multiple comparisons test",[1]; Untreated Control vs treatment,100
same,LDH viability Significant?,"[1]; Untreated Control vs treatment, alpha 0.05",Yes
same,LDH Group Mean OD,"[1]; group mean n=3 tissues, 24-hour time point",1.125
same,% Viability Mean,"[1]; group mean n=3 tissues, LDH assay, 24-hour time point",0.0%
same,LDH Mean OD,"[1]; mean of duplicates per tissue, 24-hour time point",1.181 and 1.062 and 1.132
same,LDH statistics test details: group mean,"[1]; percent viability, 24-hour time point",−0.01667
same,Tissue morphology,[2],significant tissue disruption
same,Effect on barrier function / TEER,[3]; 24-hour recovery,dropped completely
same,24 hr TEER Mean,"[3]; group mean n=3 tissues, after 24-hour recovery",8.6 Ohms*cm2
same,Pre-Exposure TEER Mean,"[3]; group mean n=3 tissues, before exposure",749.8 Ohms*cm2
same,24 hr TEER Ohms*cm2,"[3]; per tissue, after 24-hour recovery",9.0 Ohms*cm2 and 8.4 Ohms*cm2
same,Pre-Exposure TEER Ohms*cm2,"[3]; per tissue, before exposure",672.0 Ohms*cm2 and 832.8 Ohms*cm2 and 744.6 Ohms*cm2
same,"TEER Mean Diff., Tukey's multiple comparisons test",[3]; [4],628.6
same,TEER Significant?,[3]; [4],Yes
same,"TEER Mean Diff., Tukey's multiple comparisons test",[3]; [5],741.2
same,TEER Significant?,[3]; [5],Yes
same,"TEER statistics test details: group mean, pre exposure","[3]; pre exposure, N=3",749.8
same,24 hr TEER,"[3]; raw reading per tissue after 24-hour recovery, background 5 not subtracted",20 and 19
same,Pre-Exposure TEER,"[3]; raw reading per tissue before exposure, background 5 not subtracted",1125 and 1393 and 1246
